# Values quoted from earlier work in article PMC4026281 (Journal of neurochemistry, 2012).
# Tested on: rat α6/3β2 chimeric nAChRs
# Settings: cited from earlier work
substance,measurement,value
α-conotoxin MII [α-CtxMII],"t1/2 of recovery from α-CtxMII inhibition, rat α6/3β2 chimeric nAChRs",> 20 min
